Data reported in PubChem BioAssay AID1963972 (Molecular Pharmacology Branch, DTP, NCI, 2024).

Tested on: 945468-187-T-J2-PDC spheroids viability
Assay: Anticancer human tumor 945468-187-T-J2-PDC patient-derived rectal carcinoma cell line growth inhibition [PI3K]
Settings: spheroids with HUVEC and MSC; for IC50: curve of first compound; for viability, T/C: stronger effect = lower value
Excerpt: Combinatorial screen of targeted agents with the PI3K inhibitors inavolisib, alpelisib, duvelisib, and copanlisib in multi-cell type tumor spheroids
A high-throughput screen of multi-cell type tumor spheroids was designed to identify active combinations of targeted small molecules and PI3K pathway inhibitors. Complex spheroids include a stromal component modeled by human endothelial cells (HUVEC) and fibroblasts modeled by human mesenchymal stem cells (MSCs). The concentration ranges selected for each drug and investigational agent were based upon clinically achievable concentrations if the clinical Cmax of the agent was known.
Compounds. The drugs and investigational agents: inavolisib (NSC800729), alpelisib (NSC765974), duvelisib (NSC772469), copanlisib (NSC816437), ipatasertib (NSC767898), afuresertib (NSC778305), talazoparib (NSC767125), sapanisertib (NSC764658), selumetinib (NSC741078), tovorafenib (DAY101, NSC766906), vemurafenib (NSC761431), ravoxertinib (NSC781343), sotorasib (NSC818433), MRTX1133 (NSC 836407), abemaciclib (NSC 768073), palbociclib (NSC758247), venetoclax (NSC 766270), SY5609 (NSC837396), enzalutamide (NSC755605), and darolutamide (NSC825331), were obtained from the National Cancer Institute (NCI) Developmental Therapeutics Program Chemical Repository. The FDA-approved anticancer drug set is available from the NCI Developmental Therapeutics Program. […] The stock solutions were prepared in dimethyl sulfoxide (DMSO, Sigma-Aldrich, St. Louis, MO, cat. D2650) at 800-fold the tested concentration and stored at -70 degrees C prior to their use. All drugs and investigational agents were tested over a range starting from a high concentration at or near the clinical Cmax and decreasing in half-log increments. If the clinical Cmax for an agent had not been determined, the highest concentration tested was 10 microM.
Cell Culture. All cells were maintained in an incubator at 37 degrees C and 5% CO2 with 95% humidity. The PDC lines were cultured according to standard operating procedures established by the NCI PDMR (https://pdmr.cancer.gov/sops/default.htm). All PDCs were thawed and cultured in Matrigel-coated flasks prepared with a working solution of 1X Ham's F-12 nutrient mix, without supplementation (Invitrogen, Waltham, MA, cat. 11765054), 100 U/mL penicillin-streptomycin (Invitrogen, cat. 15140122), and 2.5% Matrigel (Corning Inc., Corning, NY, cat. 354248) for the first three passages. The 354836-022-R-J1-PDC, 475296-252-R-J1-PDC, and 997726-040-R-J2-PDC lines were cultured in 6A media, which includes advanced DMEM/F-12 (Thermo Fisher Scientific, cat. 12634028), 10 mM HEPES (Thermo Fisher Scientific, cat. 15630080), 1X GlutaMAX supplement (Thermo Fisher Scientific, cat. 35050061), 0.1 mg/mL primocin (InvivoGen, San Diego, CA, cat. ant-pm-2), 10% defined fetal bovine serum, heat inactivated (HyClone Laboratories Inc., Logan, UT, cat. SH30070.03HI), 50% L-WRN conditioned media (ATCC, cat. CRL-3276), 1.25 mM N-Acetyl-L-cysteine (Sigma-Aldrich, cat. A9165), 10 mM nicotinamide (Sigma-Aldrich, cat. N0636), 1X B-27 supplement (Thermo Fisher Scientific, cat. 17504044), 1X N-2 supplement (Thermo Fisher Scientific, cat. 17502048), and 10 microM Y-27632 dihydrochloride (Tocris Bioscience, Bristol, United Kingdom, cat. 1254). The 624824-186-R-J2-PDC line was cultured in 6C/Colon 1B media, which includes all 6A media components plus 50 ng/mL human EGF recombinant protein (Thermo Fisher Scientific, cat. PHG0311). […]

[1] = second compound 0.00316 µM, first compound 0.0316 µM
[2] = second compound 0.00316 µM, first compound 0.1 µM
[3] = second compound 0.01 µM, first compound 0.0316 µM
[4] = second compound 0.01 µM, first compound 0.1 µM
[5] = second compound 0.0316 µM, first compound 0.0316 µM
[6] = second compound 0.0316 µM, first compound 0.1 µM
[7] = second compound 0.1 µM, first compound 0.0316 µM
[8] = second compound 0.1 µM, first compound 0.1 µM
[9] = second compound 0.316 µM, first compound 0.0316 µM
[10] = second compound 0.316 µM, first compound 0.1 µM
[11] = second compound 1 µM, first compound 0.0316 µM
[12] = second compound 1 µM, first compound 0.1 µM
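Note: spheroids exposed to compounds for seven days before reading.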

**Q.** What does the source list for `CC(=O)c1c(C)c2cnc(Nc3ccc(N4CCNCC4)cn3)nc2n(C2CCCC2)c1=O` + CC(Nc1ccc2c(c1)OCCn1cc(N3C(=O)OCC3C(F)F)nc1-2)C(N)=O?
**A.** IC50 (second compound 0.00316 µM): > 0.1 µM; IC50 (second compound 0.01 µM): > 0.1 µM; IC50 (second compound 0.0316 µM): > 0.1 µM; IC50 (second compound 0.1 µM): > 0.1 µM; IC50 (second compound 0.316 µM): > 0.1 µM; IC50 (second compound 1 µM): > 0.1 µM; viability, T/C (second compound 0.00316 µM, first compound 0.000316 µM): 91.5%; viability, T/C (second compound 0.00316 µM, first compound 0.001 µM): 98.4%; viability, T/C (second compound 0.00316 µM, first compound 0.00316 µM): 73.9%; viability, T/C (second compound 0.00316 µM, first compound 0.01 µM): 114%; viability, T/C [1]: 129%; viability, T/C [2]: 128%; viability, T/C (second compound 0.01 µM, first compound 0.000316 µM): 73.9%; viability, T/C (second compound 0.01 µM, first compound 0.001 µM): 109%; viability, T/C (second compound 0.01 µM, first compound 0.00316 µM): 127%; viability, T/C (second compound 0.01 µM, first compound 0.01 µM): 83.5%; viability, T/C [3]: 92.8%; viability, T/C [4]: 114%; viability, T/C (second compound 0.0316 µM, first compound 0.000316 µM): 91%; viability, T/C (second compound 0.0316 µM, first compound 0.001 µM): 101%; viability, T/C (second compound 0.0316 µM, first compound 0.00316 µM): 101%; viability, T/C (second compound 0.0316 µM, first compound 0.01 µM): 87.3%; viability, T/C [5]: 86.2%; viability, T/C [6]: 105%; viability, T/C (second compound 0.1 µM, first compound 0.000316 µM): 92.5%; viability, T/C (second compound 0.1 µM, first compound 0.001 µM): 144%; viability, T/C (second compound 0.1 µM, first compound 0.00316 µM): 84.2%; viability, T/C (second compound 0.1 µM, first compound 0.01 µM): 101%; viability, T/C [7]: 107%; viability, T/C [8]: 100%; viability, T/C (second compound 0.316 µM, first compound 0.000316 µM): 81.3%; viability, T/C (second compound 0.316 µM, first compound 0.001 µM): 87%; viability, T/C (second compound 0.316 µM, first compound 0.00316 µM): 79%; viability, T/C (second compound 0.316 µM, first compound 0.01 µM): 78.1%; viability, T/C [9]: 85.3%; viability, T/C [10]: 73.1%; viability, T/C (second compound 1 µM, first compound 0.000316 µM): 90.3%; viability, T/C (second compound 1 µM, first compound 0.001 µM): 74.5%; viability, T/C (second compound 1 µM, first compound 0.00316 µM): 70.8%; viability, T/C (second compound 1 µM, first compound 0.01 µM): 72%; viability, T/C [11]: 71.2%; viability, T/C [12]: 81.4%

**Q.** What does the source list for `CNC(=O)c1ccc(N2C(=S)N(c3ccc(C#N)c(C(F)(F)F)c3)C(=O)C2(C)C)cc1F` + CC(Nc1ccc2c(c1)OCCn1cc(N3C(=O)OCC3C(F)F)nc1-2)C(N)=O?
**A.** IC50 (second compound 0.00316 µM): > 10 µM; IC50 (second compound 0.01 µM): > 10 µM; IC50 (second compound 0.0316 µM): > 10 µM; IC50 (second compound 0.1 µM): > 10 µM; IC50 (second compound 0.316 µM): > 10 µM; IC50 (second compound 1 µM): > 10 µM; viability, T/C [1]: 96.3%; viability, T/C [2]: 84.8%; viability, T/C (second compound 0.00316 µM, first compound 0.316 µM): 123%; viability, T/C (second compound 0.00316 µM, first compound 1 µM): 95%; viability, T/C (second compound 0.00316 µM, first compound 3.16 µM): 83.4%; viability, T/C (second compound 0.00316 µM, first compound 10 µM): 80.1%; viability, T/C [3]: 95.5%; viability, T/C [4]: 82%; viability, T/C (second compound 0.01 µM, first compound 0.316 µM): 85.4%; viability, T/C (second compound 0.01 µM, first compound 1 µM): 103%; viability, T/C (second compound 0.01 µM, first compound 3.16 µM): 96.8%; viability, T/C (second compound 0.01 µM, first compound 10 µM): 84.4%; viability, T/C [5]: 93.9%; viability, T/C [6]: 78.2%; viability, T/C (second compound 0.0316 µM, first compound 0.316 µM): 102%; viability, T/C (second compound 0.0316 µM, first compound 1 µM): 103%; viability, T/C (second compound 0.0316 µM, first compound 3.16 µM): 99.4%; viability, T/C (second compound 0.0316 µM, first compound 10 µM): 90.3%; viability, T/C [7]: 103%; viability, T/C [8]: 124%; viability, T/C (second compound 0.1 µM, first compound 0.316 µM): 96.4%; viability, T/C (second compound 0.1 µM, first compound 1 µM): 92.5%; viability, T/C (second compound 0.1 µM, first compound 3.16 µM): 86.5%; viability, T/C (second compound 0.1 µM, first compound 10 µM): 76%; viability, T/C [9]: 91%; viability, T/C [10]: 95.5%; viability, T/C (second compound 0.316 µM, first compound 0.316 µM): 88.6%; viability, T/C (second compound 0.316 µM, first compound 1 µM): 88.6%; viability, T/C (second compound 0.316 µM, first compound 3.16 µM): 89.1%; viability, T/C (second compound 0.316 µM, first compound 10 µM): 71.6%; viability, T/C [11]: 84.4%; viability, T/C [12]: 88.6%; viability, T/C (second compound 1 µM, first compound 0.316 µM): 86.7%; viability, T/C (second compound 1 µM, first compound 1 µM): 87.4%; viability, T/C (second compound 1 µM, first compound 3.16 µM): 64.4%; viability, T/C (second compound 1 µM, first compound 10 µM): 79.6%
